Assay results reported in PMC7211198, “Phase 1b study of a small molecule antagonist of human chemokine (C-C motif) receptor 2 (PF-04136309) in combination with nab-paclitaxel/gemcitabine in first-line treatment of metastatic pancreatic ductal adenocarcinoma” (Investigational New Drugs, 2019).

How the values were obtained:
[1] = tested on: CCR2; settings: human monocytes and human whole blood; background statement, no reference given; cited from earlier work
[2] = tested on: CD14 + CCR2+ inflammatory monocytes; experiment: CD14+CCR2+ inflammatory monocytes in peripheral blood and bone marrow by flow cytometry; type: in vivo, human
Method: (§1) The levels of CD14 + CCR2+ IM or other immune-cell phenotypes in the samples from the core needle biopsy, fine-needle aspirate from primary tumor tissue, bone marrow, and peripheral blood were assessed by flow cytometry. CCL2 levels were determined using whole blood plasma by immunoassay using a luminex-based method. The ex vivo inhibition of CCL2-induced pERK by PF-04136309 was measured in whole blood using flow cytometry. Percentages of CD4+, CD8+, and CD4 + FoxP3+ T cells within CD45+ populations were evaluated by flow cytometry in paired fresh biopsy samples from three patients. Two patients provided both baseline and on-study biopsies, and one patient provided a baseline biopsy only.

[3] = tested on: CCL2-induced pERK; experiment: Ex vivo CCL2-induced pERK in whole blood by flow cytometry (target engagement); parameters: species or system human; settings: most patients, 500 mg (n = 17) and 750 mg (n = 4) BID, over the course of study
From the text: The primary objectives were to evaluate the safety and tolerability of PF-04136309 in combination with nab-paclitaxel/gemcitabine, to characterize the dose-limiting toxicities (DLTs), and determine the RP2D of PF-04136309. Secondary objectives included assessment of PF-04136309 PK analysis and ex vivo inhibition of CCL2-induced extracellular signal-regulated kinase phosphorylation (pERK) as a measure of target engagement. Exploratory objectives included evaluation of CCL2 levels in peripheral blood and the prevalence of IM, TAM, and other relevant immune cells in the peripheral blood, bone marrow, and core needle biopsy of metastases or fine-needle aspirate primary tumor tissue.
as §1

## O=C(NCC(=O)N1CC[C@H](N[C@H]2CC[C@@](O)(c3ccc(-c4ncccn4)cn3)CC2)C1)c1cccc(C(F)(F)F)c1 [PF-04136309]
[1]
  Effect on CCR2-mediated signal transduction, chemotaxis, and CCL2 binding: block
[2]; 500 mg BID, week 6 post dosing vs baseline
  Accumulation of CCR2 + CD14+ monocytes in the bone marrow: not observed
[2]; nearly all patients, baseline to study day 2, sustained through day 15
  Change in absolute counts of CD14 + CCR2+ IM in peripheral blood: drop
[3]
  Change in CCL2-induced pERK: drop
